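Where inhibition never reached the appropriate level, the endpoint shown equals the highest concentration tested. Otherwise, values were interpolated linearly from a five-concentration, 48-hour dose response in 96-well plates. Here, GI50 denotes the concentration required for 50% inhibition of growth.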 Calls of active or inactive are those of the source. Cut-off read from the data, not from the text of the source: active = GI50 up to about 1.1 µM and inactive = higher.

Holding throughout (assay): NCI tumour cell line growth inhibition, 48 h
Assay [1] deals with Malme-3M.
For assay [2], the system named is NCI/ADR-RES.
Assay [3] deals with UACC-62.
Assay [4] concerns A549.
For assay [5], the system named is MDA-MB-231.
For assay [6], the system named is TK-10.
Assay [7] deals with NCI-H460.
For assay [8], the system named is HCT-116.
The subject of assay [9] is A498.
Assay [10] relates to COLO 205.
For assay [11], the system named is SNB-19.
The test system of assay [12] is HCC 2998.
For assay [13], the system named is MOLT-4.
The subject of assay [14] is Hs-578T.
Assay [15] deals with RPMI-8226.
In assay [16] the test system is SK-MEL-28.
For assay [17], the system named is OVCAR-4.
Assay [18] concerns SF-268.
Assay [19] relates to SNB-75.
For assay [20], the system named is SK-OV-3.

With `N[C@@H](CCC(=O)NC(Cc1ccccc1)C(=O)NCP(=O)(O)O)C(=O)O` (some centres undefined), the GI50 in assay [1], in assay [2], in assay [3], in assay [4], in [5] and in [6] was > 100 µM (inactive) throughout. Besides, the GI50 in assay [7], in [8], in assay [9], in [10], in [11] and in assay [12] was > 100 µM (inactive) each time. Also, the GI50 in assay [13], in assay [14], in assay [15] and in assay [16] was > 100 µM (inactive) throughout.
Consider `NS(=O)(=O)c1c(O)c2ccccc2oc1=O`, for which the GI50 in assay [1], in assay [2], in assay [3], in assay [17], in assay [4] and in [5] was > 100 µM (inactive) throughout. Moreover, the GI50 in [6], in assay [7], in assay [8], in [9], in [10] and in [11] was > 100 µM (inactive) throughout. The GI50 in [12], in assay [13], in [18], in assay [14], in assay [15] and in [16] was > 100 µM (inactive) in each case. For the same compound, the GI50 in assay [19] is > 100 µM (inactive).
With `COc1ccc(CC/N=C2\OCc3ccccc32)cc1OC`, the GI50 is 56.8 µM (inactive) in [1]; 67 µM (inactive) in assay [2]; 29.2 µM (inactive) in [3]; 59 µM (inactive) in [17]; 46.3 µM (inactive) in assay [4]; 61.8 µM (inactive) in assay [5]. For the same compound, the GI50 in assay [6] was > 100 µM (inactive); in [7] it was 45.5 µM (inactive); in [20] it was 30.5 µM (inactive); in assay [8], 24 µM (inactive); in assay [9] it was > 100 µM (inactive); in assay [10] it was 49.3 µM (inactive). For the same compound, the GI50 in assay [11] was > 100 µM (inactive); in [12], > 100 µM (inactive); in assay [13] it was 50.4 µM (inactive); in [14], 67 µM (inactive); in assay [16], > 100 µM (inactive); in [19], 68.2 µM (inactive).
For the compound `OCC(O)C(Cl)CCl` (centres undefined), the GI50 in assay [1] was 31.5 µM (inactive); in assay [2], > 100 µM (inactive); in assay [3], > 100 µM (inactive); in assay [17] it was > 100 µM (inactive); in assay [4], > 100 µM (inactive); in [5], > 100 µM (inactive). Besides, the GI50 in assay [6] is > 100 µM (inactive); in assay [7], > 100 µM (inactive); in [20], > 100 µM (inactive); in assay [8], > 100 µM (inactive); in assay [9], > 10 µM (inactive); in assay [10], > 100 µM (inactive). Besides, the GI50 in [11], in assay [12], in assay [13], in [18], in [14] and in [16] was > 100 µM (inactive) throughout. Also, in assay [19], the GI50 is > 100 µM (inactive).
Turning to `CC1C2(C)OC(=N)C(C#N)(C(c3ccccc3)O2)C1(C#N)C#N` (centres undefined), the GI50 in assay [1] is 28.3 µM (inactive); in assay [2], 42.9 µM (inactive); in assay [3], 24.4 µM (inactive); in [4] it was > 100 µM (inactive); in assay [5] it was 16.9 µM (inactive); in assay [6], 36 µM (inactive). Besides, the GI50 in assay [7] was 12.6 µM (inactive); in assay [20] it was > 100 µM (inactive); in assay [8] it was 21.2 µM (inactive); in [9], 42.1 µM (inactive); in assay [10], 16.4 µM (inactive); in assay [11] it was 55.2 µM (inactive). For the same compound, the GI50 in assay [12] was 10.8 µM (inactive); in [13], 25.4 µM (inactive); in assay [18], 25.5 µM (inactive); in assay [14], 24.6 µM (inactive); in assay [16], > 10 µM (inactive); in assay [19] it was > 100 µM (inactive).
As to `Cn1nc2c(c1N)Cc1c(nn(C)c1N)-c1ccccc1-2`, the GI50 in [1], in [2], in assay [3], in [17], in assay [4] and in [5] was > 100 µM (inactive) each time. The GI50 is > 100 µM (inactive) in assay [6]; > 100 µM (inactive) in [7]; > 100 µM (inactive) in [20]; > 100 µM (inactive) in [8]; 20.2 µM (inactive) in assay [9]; > 100 µM (inactive) in assay [10]. The GI50 in assay [11], in assay [12], in assay [13], in assay [18], in assay [14] and in [15] was > 100 µM (inactive) throughout. In addition, in assay [16], the GI50 is > 100 µM (inactive).
For the compound `Cc1c(O)oc2ccccc2c1=O`, the GI50 in [1], in [2], in assay [3], in assay [17], in assay [4] and in assay [5] was > 100 µM (inactive) in each case. The GI50 in assay [7], in assay [8], in assay [9], in assay [10], in [11] and in assay [12] was > 100 µM (inactive) in each case. The GI50 in [13], in assay [18], in assay [14], in assay [15], in assay [16] and in assay [19] was > 100 µM (inactive) in each case.
With `CC/C(=N/O)c1ccc(Br)s1`, the GI50 in assay [1] is > 100 µM (inactive); in assay [2], > 100 µM (inactive); in assay [3] it was 84.1 µM (inactive); in [17], > 100 µM (inactive); in assay [4] it was > 100 µM (inactive); in [5], > 100 µM (inactive). For the same compound, the GI50 in assay [6], in assay [7], in assay [20], in [8], in [9] and in assay [10] was > 100 µM (inactive) each time. The GI50 in assay [11] was 66.1 µM (inactive); in assay [12], > 100 µM (inactive); in assay [13] it was 44.7 µM (inactive); in assay [18] it was > 100 µM (inactive); in assay [14], 95.1 µM (inactive); in [16], > 100 µM (inactive). Moreover, the GI50 in assay [19] was 67.8 µM (inactive).
For `C=CCc1c(O)c2ccccc2[nH]c1=O`, the GI50 in assay [1], in assay [2], in [17], in [4], in assay [5] and in assay [6] was > 100 µM (inactive) throughout. For the same compound, the GI50 in assay [7], in assay [8], in [9], in assay [10], in assay [11] and in [12] was > 100 µM (inactive) throughout. The GI50 in assay [13], in assay [14], in assay [15], in assay [16] and in [19] was > 100 µM (inactive) each time.
For the compound `NC(=O)SCC(=O)Nc1ccc2cccc3c2c1CC3`, the GI50 in [1] is > 100 µM (inactive); in assay [2] it was 42.6 µM (inactive); in [3], 13.7 µM (inactive); in [17] it was 17.3 µM (inactive); in assay [4], > 100 µM (inactive); in assay [5] it was 6.76 µM (inactive). The GI50 was 27.9 µM (inactive) in assay [6]; 15.5 µM (inactive) in assay [8]; 91 µM (inactive) in assay [9]; > 100 µM (inactive) in assay [10]; 99.3 µM (inactive) in [11]; 62.1 µM (inactive) in [12]. The GI50 in assay [13] was 19.8 µM (inactive); in [18], 15.3 µM (inactive); in assay [14], 47.6 µM (inactive); in assay [15], 20.9 µM (inactive); in assay [16], > 10 µM (inactive); in [19], 96.6 µM (inactive).
Take `CC1(C)N=C(N)N=C(N)N1c1ccc(CCCCc2ccc(Cl)cc2Cl)cc1`: the GI50 was 0.486 µM (active) in assay [1]; 93.5 µM (inactive) in assay [2]; 0.542 µM (active) in assay [17]; 0.335 µM (active) in [4]; 2.07 µM (inactive) in [5]; 3.13 µM (inactive) in assay [6]. Further, the GI50 was 0.0165 µM (active) in assay [7]; 0.746 µM (active) in assay [20]; 0.247 µM (active) in assay [8]; 12.8 µM (inactive) in [9]; 0.927 µM (active) in assay [10]; 0.527 µM (active) in [11]. For the same compound, the GI50 was 0.451 µM (active) in assay [12]; 0.861 µM (active) in [13]; 0.382 µM (active) in assay [18]; 4.67 µM (inactive) in [14]; 1.17 µM (inactive) in assay [15]; 2.88 µM (inactive) in [16].

For the origin of these results see ChEMBL document CHEMBL1201862, “PubChem BioAssay data set” (2004).
